# In ChEMBL document CHEMBL1201862, “PubChem BioAssay data set” (2004):
#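 Values below derive from 48-hour exposures of cells grown in 96-well plates, with endpoints linearly interpolated between the two concentrations bracketing the appropriate inhibition level. At the GI50, growth is halved.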 Activity calls are given as the source filed them. Rule as the data show it: active = GI50 up to about 1.1 µM and inactive = higher.
# Key:
# Assay in all cases: growth of human tumour cells (NCI), 48 h
# HOP-62 = test system: HOP-62
# U-251 = test system: U-251
# HCC 2998 = test system: HCC 2998
# SN12C = test system: SN12C
# MCF7 = test system: MCF7
# CAKI-1 = test system: CAKI-1
# SNB-75 = test system: SNB-75
# HCT-15 = test system: HCT-15
# OVCAR-5 = test system: OVCAR-5
# NCI-H460 = test system: NCI-H460
# TK-10 = test system: TK-10
# Hs-578T = test system: Hs-578T
# MDA-MB-231 = test system: MDA-MB-231
# CCRF-CEM = test system: CCRF-CEM
# SNB-19 = test system: SNB-19
# NCI-H23 = test system: NCI-H23
# K562 = test system: K562
# RPMI-8226 = test system: RPMI-8226
# HCT-116 = test system: HCT-116
SMILES,GI50 (HOP-62),GI50 (U-251),GI50 (HCC 2998),GI50 (SN12C),GI50 (MCF7),GI50 (CAKI-1),GI50 (SNB-75),GI50 (HCT-15) [µM],GI50 (OVCAR-5),GI50 (NCI-H460),GI50 (TK-10),GI50 (Hs-578T),GI50 (MDA-MB-231),GI50 (CCRF-CEM),GI50 (SNB-19),GI50 (NCI-H23),GI50 (K562),GI50 (RPMI-8226),GI50 (HCT-116)
COc1cc(/C=C/c2cc(/C=C/c3ccc(O)c(OC)c3)oc(=O)c2)ccc1O,4.92 µM (inactive),3.07 µM (inactive),1.81 µM (inactive),5.53 µM (inactive),3.33 µM (inactive),3.61 µM (inactive),0.393 µM (active),3.12,32.8 µM (inactive),2.29 µM (inactive),3.78 µM (inactive),4.54 µM (inactive),13.9 µM (inactive),3.64 µM (inactive),7.57 µM (inactive),4.06 µM (inactive),4.43 µM (inactive),2.3 µM (inactive),3.67 µM (inactive)
O=C(O)CC12CC3CC(CC(O)(C3)C1)C2,> 100 µM (inactive),> 100 µM (inactive),> 100 µM (inactive),> 100 µM (inactive),> 100 µM (inactive),> 100 µM (inactive),> 100 µM (inactive),> 100,> 100 µM (inactive),> 100 µM (inactive),> 100 µM (inactive),27.5 µM (inactive),> 100 µM (inactive),,> 100 µM (inactive),> 100 µM (inactive),> 100 µM (inactive),> 100 µM (inactive),> 100 µM (inactive)
O=C1C(=Cc2ccccc2O)N=C(c2ccccc2)N1n1c(-c2ccccc2)nc2ccccc2c1=O,31.3 µM (inactive),,30.7 µM (inactive),43 µM (inactive),17.2 µM (inactive),25.8 µM (inactive),23.4 µM (inactive),40.4,,29.8 µM (inactive),50.2 µM (inactive),35.6 µM (inactive),42.2 µM (inactive),28.4 µM (inactive),48 µM (inactive),35.4 µM (inactive),29.6 µM (inactive),38.6 µM (inactive),32.3 µM (inactive)
O=C(O)CCC1C(=O)C2CCN1CC2 (stereo not drawn),> 100 µM (inactive),> 100 µM (inactive),> 100 µM (inactive),> 100 µM (inactive),> 100 µM (inactive),> 100 µM (inactive),> 100 µM (inactive),> 100,> 100 µM (inactive),> 100 µM (inactive),> 100 µM (inactive),> 100 µM (inactive),> 100 µM (inactive),> 100 µM (inactive),> 100 µM (inactive),> 100 µM (inactive),> 100 µM (inactive),> 100 µM (inactive),> 100 µM (inactive)
C=CCNC1=C2C[C@@H](C)C[C@@H](OC)[C@H](OC(=O)CCN)[C@H](C)/C=C(\C)[C@@H](OC(N)=O)[C@H](OC)/C=C\C=C(/C)C(=O)NC(=CC1=O)C2=O,3.53 µM (inactive),5.09 µM (inactive),1.06 µM (active),2.34 µM (inactive),0.703 µM (active),12.2 µM (inactive),3.18 µM (inactive),9.57,10.8 µM (inactive),2.77 µM (inactive),2.17 µM (inactive),14.5 µM (inactive),5.19 µM (inactive),,6.27 µM (inactive),3.01 µM (inactive),3.99 µM (inactive),6.08 µM (inactive),3.53 µM (inactive)
COc1cc(C2SC(=N)Nc3c2c(C)nn3C(=O)Cc2ccccc2)cc(OC)c1OC (stereo not drawn),> 100 µM (inactive),,> 100 µM (inactive),> 100 µM (inactive),> 100 µM (inactive),> 100 µM (inactive),28.4 µM (inactive),> 100,,> 100 µM (inactive),> 100 µM (inactive),> 100 µM (inactive),> 100 µM (inactive),> 100 µM (inactive),> 100 µM (inactive),> 100 µM (inactive),> 100 µM (inactive),> 100 µM (inactive),> 100 µM (inactive)
O=C1CC2c3ccccc3CCC2c2ccccc21 (stereo not drawn),25.9 µM (inactive),34.8 µM (inactive),21.5 µM (inactive),,24 µM (inactive),33.2 µM (inactive),38.2 µM (inactive),14.1,24.4 µM (inactive),22.3 µM (inactive),35.2 µM (inactive),12.4 µM (inactive),20.5 µM (inactive),,15.1 µM (inactive),20.2 µM (inactive),6.32 µM (inactive),43.5 µM (inactive),11.1 µM (inactive)
CC1=NC(=Cc2ccc(Cl)cc2)C(=O)N1n1c(-c2ccccc2)nc2ccccc2c1=O,47.2 µM (inactive),,38.8 µM (inactive),43.4 µM (inactive),28.2 µM (inactive),17.8 µM (inactive),38.6 µM (inactive),44.4,,23 µM (inactive),51.6 µM (inactive),18.1 µM (inactive),49.7 µM (inactive),37.8 µM (inactive),48.6 µM (inactive),26.3 µM (inactive),34.8 µM (inactive),34.1 µM (inactive),34.8 µM (inactive)
COc1ccc(C(=O)c2sc(N(C)C)nc2-c2ccccc2)cc1,20.6 µM (inactive),43 µM (inactive),18.2 µM (inactive),39.6 µM (inactive),21.6 µM (inactive),,35.2 µM (inactive),26.4,36.7 µM (inactive),20.2 µM (inactive),37.9 µM (inactive),38.7 µM (inactive),33.7 µM (inactive),5.07 µM (inactive),64.3 µM (inactive),34.5 µM (inactive),35.4 µM (inactive),33 µM (inactive),31 µM (inactive)
COc1cc2c(cc1C)NC(=O)/C2=C/c1c(Cl)n(-c2ccccc2)c2ccccc12,19.4 µM (inactive),16.1 µM (inactive),8.24 µM (inactive),11.2 µM (inactive),10.2 µM (inactive),21 µM (inactive),65 µM (inactive),11.8,29.5 µM (inactive),9.59 µM (inactive),28.9 µM (inactive),20 µM (inactive),8.69 µM (inactive),4.42 µM (inactive),45.7 µM (inactive),16.4 µM (inactive),6.46 µM (inactive),7.28 µM (inactive),13.4 µM (inactive)
COc1ccc(-c2cc(=O)c3c(OC)c(OC)c(OC)c(OC)c3o2)c(OC)c1,26.7 µM (inactive),30.8 µM (inactive),18.8 µM (inactive),20.6 µM (inactive),20.5 µM (inactive),29.8 µM (inactive),15.6 µM (inactive),25.6,70.8 µM (inactive),32.1 µM (inactive),37.2 µM (inactive),18 µM (inactive),25.1 µM (inactive),33.8 µM (inactive),32.8 µM (inactive),16.9 µM (inactive),48.4 µM (inactive),33 µM (inactive),21.6 µM (inactive)
